For assay [1], the system named is ob/ob mice. Put plainly: Long-term dietary dosing of obese mice, growth curves. Conditions: 2400 mg/kg/d in diet. In kind it is in vivo, mouse. As for the experimental part: Control C57B1/6 and C57BL/6O1aHsd-Lep ob mice were obtained from Harlan, UK at five weeks of age. The mice were housed under standard non-sterile conditions and fed a diet of mouse chow pelleted or expanded ground RM1 diet (SDS Ltd, Witham, Essex) with water available ad libitum. For dietary treatment of the mice with NB-DNJ or NB-DGJ, the diet and compound were admixed thoroughly as dry solids, stored at room temperature and used within 7 days. Unless indicated otherwise, mice were treated with a dose of 2400 mg/kg body weight per day, assuming an intake of around 5 g diet/day. Mice were maintained on diet with or without compound for up to six months of age and were weighed at regular intervals during the course of the experiment (see figure legends for group sizes and further experimental details). To study the effect of compound on obese mice, three groups (n=5) of ob/ob mice were monitored from five weeks of age. One group acted as control and were fed ground RM1 diet. […] All mice were then monitored for up to six months of age. Leptin deficient ob/ob mice are widely used as an animal model of obesity and weigh more than twice as much as a normal mouse, even when fed the same diet. The mice have as much as a five-fold increase in fat content, are hyperphagic, hypothermic, have decreased energy expenditure and are unusually efficient at converting metabolic fuels into fat. Friedman & Halas, Nature 395, 763-70 (1998). These mice were used to investigate the effect of NB-DNJ. […] As NB-DNJ was so effective at reducing white adipose tissue in normal mice, a study was performed to discover if a similar effect would occur in obese mice. […] The control obese mice grew from just over 20 g at five weeks old to about 60 g at six months of age whereas the lean controls had reached about 27 g at the same age. The group of obese mice started on NB-DNJ treatment at 7 weeks old grew at a very much reduced rate and weighed 35 g after six months (40% less than their control littermates). […]

Assay [2] relates to lean control mouse. Kind of assay: Single intracerebroventricular (ICV) injection, food intake and weight change after 24 hours. The format is in vivo. As for the experimental part: To investigate a central anorexigenic mechanism for weight loss in mice treated with NB-DNJ, single intracerebro-ventricular (ICV) injections were performed. The mice were assessed for food intake and weight change. Mice were anesthetized with isofluorane (4%) delivered by a vaporiser. Upon achievement of a surgical plane of anaesthesia, the animal was transferred to and secured in a Kopf small animal ultra precise stereotaxic instrument (David Kopf Instruments, Tujunga, Calif., USA) fitted with rat ear bars, mouse adaptor and mouse anaesthesia mask. A small amount of lignocaine local anaesthetic gel was applied to the ear bars to reduce any post-operative discomfort. For the remainder of the procedure, anaesthesia was maintained with 2.5% isofluorane. Lacrilube (Allergan Ltd, High Wycombe, UK) was applied to the mouse's eyes and a subcutaneous injection of the non-steroidal anti-inflammatory drug, Rimadyl (Pfizer, Sandwich, Kent, UK) was given for post-operative analgesia. For ICV injections, a small scalpel incision was made along the midline of the scalp from above the eyes to the occiput. A small hole was drilled in the skull, 1 mm lateral and 0.34 mm posterior to Bregma. 1 μl solution was slowly infused into the lateral ventricle at a depth of 2.25 mm, via a glass needle pipette pulled to a thickness of less than 100 microns at the tip. Mice were injected with 2 nmol compound (NB-DNJ, NB-DGJ or 2-deoxy glucose) in isotonic saline vehicle which was injected into controls. The incision was then closed using VetBond acrylic suture fluid (3M Animal Care Products, St Paul, Minn., USA). The whole procedure from induction of anaesthesia to full recovery lasted less than seven minutes. Mice were allowed free access to a pre-weighed quantity of RM1 pellet diet with water provided ad libitum. 24 hours following ICV injection the mice and remaining diet were weighed. To confirm a central anorectic effect of NB-DNJ, 2 nmol NB-DNJ, NB-DGJ and 2 deoxyglucose were injected directly into the lateral cerebral ventricle of lean control mouse brain (approximately 100 μM final cerebro-ventricular concentration). Mice injected with both saline vehicle and NB-DGJ ate a normal quantity of pellet diet in the following 24 hours (FIG. 9), approximately 5% less in this experiment than that seen in control mice in FIG. 7 (not statistically significant). In contrast, NB-DNJ-injected mice ate 20% less (p<0.02 for both saline and NB-DGJ) and 2-deoxy-glucose injections caused a 10% increase in feeding. 2-deoxy-glucose is a mild appetite stimulant in the short-term. Tsutsui et al., Physiol Behav 31, 493-502. In contrast, NB-DGJ had no effect, as expected.

Assay [3] concerns male C57B1/6 mice. Kind of assay: Epididymal fat pad weight, dose-response. In kind it is in vivo, mouse. As for the experimental part:
A dose-response relationship for the effect of increasing concentrations of NB-DNJ on adipose tissue in male C57B1/6 mice was determined by treating with doses ranging from 15 to 2400 mg/kg/day for 5 weeks. Mice were sacrificed and their epididymal fat pads excised and weighed. The results are expressed as a ratio of epididymal pad fat mass to total body weight.

Assay [4] has as its system control lean mice. Put plainly: ICV mini-pump implants, long-term intracerebro-ventricular delivery. The format is in vivo, mouse. The procedure:
FIG. 11. Control lean mice (n=5 in each group) had icv minipumps (50 mM imino sugar) implanted. Body weight was the monitored at regular intervals over three weeks. See example 7 for further experimental details. The effect of long-term intracerebro-ventricular delivery of imino sugars was determined by the implantation of Alzet mini-osmotic pumps (model 2004, DURECT Corporation, CA, USA) together with the brain infusion kit II which features a high stability low profile cannula. The mini-pumps were loaded with 0.24 ml imino sugar or saline vehicle. The indwelling 28 gauge stainless steel cannula was cut to a length of 2.25 mm. Mice were anaesthetised as for the ICV injections and underwent similar surgical procedures throughout. After drilling a small hole in the cranium at the midline, 2 mm posterior to Bregma, the mini-pump was positioned subcutaneously in the animal's flank and the cannula was implanted. This position and depth ensured delivery to the third cerebral ventricle. The implant was secured to the cranium using VetBond acrylic suture fluid, which was also used to close the surgical wound. The whole procedure lasted less than 9 minutes and mice were fully conscious and recovered within three minutes. For concentration of imino sugar in mini-pumps see figure legends.

[5] abbreviates: ICV mini-pump 500 mM, first 24 hours.

Turning to `CCCCN1C[C@H](O)[C@@H](O)[C@H](O)[C@H]1CO` [NB-DNJ, N-butyldeoxynojirimycin], in assay [1] (started at 7 weeks old), the “body weight of obese mice after six months” value is listed as 35 g. Also, the “weight less than control littermates” value in assay [1] (started at 7 weeks old, after six months) came out at 40%. Also, in assay [1] (started at 12 weeks old, over three months), the “weight at which obese mice stabilised after losing weight” value is “less than 40 g”. Further, in assay [2] (2 nmol ICV, 24 hours), the “ate less than saline- and NB-DGJ-injected mice” value was 20%; the “weight change” value is given as “significant weight loss”. The “initial hyperphagic response” value in assay [2] (first 24 hrs post icv injection) is reported as “did not cause an initialhyperphagic response”. In addition, the “lowest dose at which a reduction in fat pad weight is apparent” value in assay [3] (5 weeks treatment, doses 15 to 2400 mg/kg/day) came to 15 mg/kg/day. Also, in assay [3] (five weeks treatment, 15 to 2400 mg/kg/day), the “epididymal fat pad mass to total body weight” value is reported as “clear dose-related response”. Also, the “reduction in food intake compared to the controls” value in assay [4] (ICV mini-pump 50 mM, NB-DGJ as control) was determined as 6%. For the same molecule, the “reduction of body weight” value in assay [4] (ICV mini-pump 50 mM, after 3 weeks) is recorded as 5%. In assay [4] (setting [5]), the “effect on dietary intake” value is reported as “ate even less” and the “effect on weight change” value is reported as “lost a little more weight”.

Values taken from patent publication US20060025449A1, “Use of N-substituted imino sugars for appetite suppression” (priority 2004, published 2006).
